Test results as given in patent publication US20230043863A1, “HETEROAROMATIC DERIVATIVES FOR USE AS REGULATOR, PREPARATION METHOD THEREFOR AND USE THEREOF” (JIANGSU HANSOH PHARMACEUTICAL GROUP CO., LTD., priority 2018, published 2023).
pIC50: −log10 of the molar value.

Columns and labels:
TYK2 = TYK2 (Homo sapiens, UniProt P29597); experiment: JAK kinase activity inhibition, TR-FRET (TYK2); type: biochemical; conditions: TR-FRET kinase assay
Experimental: (§1) Experimental objective: The objective of this test is to test the inhibitory effect of the compound on JAK kinase activity.
(§2) Experimental method: the fluorescence resonance energy transfer (TR-FRET) method was used to test the inhibitory effect of the compound on JAK kinase activity, and the half inhibitory concentration IC50 of the compound on JAK kinase activity was obtained.
(§3) Kinase reaction was carried out in a white 384-well plate (PerkinElmer). 1-5 μL of different concentrations of the compound diluted with DMSO and ddH2O was added into each well, and 1-5 μL of the corresponding solvent was added to the positive control wells, followed by addition of 0.1-20 nM JAK kinase solution diluted with 1-5 μL of kinase buffer (HEPES 50-250 mM, MgCl2 5-20 mM, etc.) was added to each well. 1-5 μL of kinase buffer was added to the negative control well. 1-5 μL of substrate mixture containing peptide substrate and ATP was added. The plate was incubated at room temperature for 0.5-5 hours. […], EDTA and detection solution containing labeled antibody was added, and then the plate was incubated at room temperature for another 1-24 hours. The fluorescence signal value at about 620 nm and 665 nm of each well was measured by BioTek Synergy H1 plate reader, and the inhibition rate was calculated by the fluorescence signal value. According to the inhibition rate of different concentrations, the IC50 of the compound was obtained by curve fitting.
(§4) The percentage inhibition data of the wells treated with the compound was calculated with the positive control wells (DMSO control wells) and negative control wells (no kinase added) on the plate {% inhibition rate=100-[(test compound value-negative control value)]/(Positive control value-negative control value)×100}. IC50 value was calculated by using GraphPad prism to fit the data of different concentrations and corresponding percentage inhibition rates to a 4-parameter non-linear logic formula.

JAK1 = JAK1 (Homo sapiens, UniProt P23458); experiment: JAK kinase activity inhibition, TR-FRET (JAK1); type: biochemical; conditions: TR-FRET kinase assay
Experimental: as §1, §2, §3, §4

Sequence of JAK1 (P23458 whole entry): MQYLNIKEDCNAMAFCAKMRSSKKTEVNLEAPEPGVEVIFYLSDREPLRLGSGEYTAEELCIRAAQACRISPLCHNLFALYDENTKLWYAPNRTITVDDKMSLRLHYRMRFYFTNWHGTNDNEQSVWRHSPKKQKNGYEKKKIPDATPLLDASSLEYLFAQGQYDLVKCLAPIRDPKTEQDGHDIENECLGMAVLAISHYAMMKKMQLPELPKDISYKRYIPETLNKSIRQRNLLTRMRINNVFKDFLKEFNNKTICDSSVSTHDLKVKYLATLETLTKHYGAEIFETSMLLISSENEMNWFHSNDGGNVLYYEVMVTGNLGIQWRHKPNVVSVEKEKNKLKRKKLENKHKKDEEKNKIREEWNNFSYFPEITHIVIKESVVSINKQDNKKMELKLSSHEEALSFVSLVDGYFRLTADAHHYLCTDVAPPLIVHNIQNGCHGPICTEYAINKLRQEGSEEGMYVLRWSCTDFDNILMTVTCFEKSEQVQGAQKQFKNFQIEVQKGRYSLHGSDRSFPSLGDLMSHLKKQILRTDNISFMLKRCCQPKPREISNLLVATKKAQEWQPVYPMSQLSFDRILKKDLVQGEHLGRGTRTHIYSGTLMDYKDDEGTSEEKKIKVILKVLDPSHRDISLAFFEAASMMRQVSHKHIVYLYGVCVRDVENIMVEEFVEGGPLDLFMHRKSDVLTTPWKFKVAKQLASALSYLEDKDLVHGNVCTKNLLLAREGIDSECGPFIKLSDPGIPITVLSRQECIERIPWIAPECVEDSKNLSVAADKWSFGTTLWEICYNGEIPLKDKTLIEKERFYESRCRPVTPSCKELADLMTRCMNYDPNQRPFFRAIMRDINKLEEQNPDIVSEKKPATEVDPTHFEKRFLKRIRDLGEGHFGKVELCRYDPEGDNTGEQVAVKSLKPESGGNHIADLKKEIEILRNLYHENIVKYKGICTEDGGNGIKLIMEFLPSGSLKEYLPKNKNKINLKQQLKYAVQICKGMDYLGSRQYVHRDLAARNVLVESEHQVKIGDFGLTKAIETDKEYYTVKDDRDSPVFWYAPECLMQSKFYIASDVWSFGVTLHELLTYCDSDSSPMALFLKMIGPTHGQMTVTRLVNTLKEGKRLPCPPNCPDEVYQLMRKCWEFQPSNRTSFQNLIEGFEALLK
Sequence of TYK2 (P29597 whole entry): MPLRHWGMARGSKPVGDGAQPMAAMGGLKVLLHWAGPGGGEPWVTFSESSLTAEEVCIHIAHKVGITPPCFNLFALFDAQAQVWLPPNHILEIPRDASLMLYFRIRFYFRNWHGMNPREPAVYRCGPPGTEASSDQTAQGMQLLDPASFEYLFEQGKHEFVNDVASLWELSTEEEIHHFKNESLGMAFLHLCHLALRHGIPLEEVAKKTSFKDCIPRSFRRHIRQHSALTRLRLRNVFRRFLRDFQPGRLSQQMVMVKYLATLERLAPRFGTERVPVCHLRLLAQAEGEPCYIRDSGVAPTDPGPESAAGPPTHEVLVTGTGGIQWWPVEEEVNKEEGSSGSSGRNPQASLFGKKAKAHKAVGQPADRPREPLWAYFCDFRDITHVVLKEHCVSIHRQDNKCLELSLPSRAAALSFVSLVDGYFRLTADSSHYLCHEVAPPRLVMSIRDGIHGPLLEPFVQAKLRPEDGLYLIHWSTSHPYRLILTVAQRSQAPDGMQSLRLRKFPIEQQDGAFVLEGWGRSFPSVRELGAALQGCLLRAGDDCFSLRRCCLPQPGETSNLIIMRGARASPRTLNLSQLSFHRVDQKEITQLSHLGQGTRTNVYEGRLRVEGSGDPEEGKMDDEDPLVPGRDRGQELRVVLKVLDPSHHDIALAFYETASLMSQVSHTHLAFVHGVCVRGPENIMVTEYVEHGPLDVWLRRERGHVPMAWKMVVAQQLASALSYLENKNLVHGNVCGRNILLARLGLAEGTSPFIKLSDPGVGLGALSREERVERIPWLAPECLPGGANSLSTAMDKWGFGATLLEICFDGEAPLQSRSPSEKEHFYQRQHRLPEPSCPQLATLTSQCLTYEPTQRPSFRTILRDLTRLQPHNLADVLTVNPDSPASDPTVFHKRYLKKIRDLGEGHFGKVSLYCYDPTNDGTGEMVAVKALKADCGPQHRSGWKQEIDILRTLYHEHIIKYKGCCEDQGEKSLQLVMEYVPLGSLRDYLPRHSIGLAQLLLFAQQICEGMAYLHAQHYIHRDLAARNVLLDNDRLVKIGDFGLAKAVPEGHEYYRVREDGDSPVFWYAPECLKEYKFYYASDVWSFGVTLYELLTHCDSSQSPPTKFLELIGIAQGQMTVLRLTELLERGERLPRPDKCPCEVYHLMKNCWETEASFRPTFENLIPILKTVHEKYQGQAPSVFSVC

| pIC50 (TYK2) | pIC50 (JAK1) | SMILES |
| --- | --- | --- |
| 8.80 | 8.47 | Cc1cc(Nc2nc(N[C@@H]3C[C@H]4CC[C@@H](C3)N4CCC#N)nc3c(Cl)cccc23)n[nH]1 [Embodiment 177, 3-((3-exo)-3-((8-chloro-4-((5-methyl-1H-pyrazol-3-yl)amino)quinazolin-2-yl)amino)-8-azabicyclo[3.2.1]oct-8-yl)propionitrile] |
| 7.85 | 10.22 | Cc1cc(Nc2nc(N[C@@H]3C[C@H]4CC[C@@H](C3)N4S(=O)(=O)N3CC(C#N)C3)nc3cc(C)sc23)n[nH]1 [Embodiment 286, 1-(((3-exo)-3-((6-methyl-4-((5-methyl-1H-pyrazol-3-yl)amino)thieno[3,2-d]pyrimidin-2-yl)amino)-8-azabicyclo[3.2.1]oct-8-yl)sulfonyl)azetindin-3-formonitrile] |
| < 7.00 | 7.45 | Cc1cc(Nc2nc(N[C@@H]3C[C@H]4CC[C@@H](C3)N4CCC#N)c3ccccc3n2)n[nH]1 [Embodiment 87, 3-((3-exo)-3-((2-((5-methyl-1H-pyrazol-3-yl)amino)quinazolin-4-yl)amino)-8-azabicyclo[3.2.1]oct-8-yl)propionitrile] |
| 9.82 | 9.19 | Cc1cc(Nc2nc(N[C@@H]3C[C@H]4CC[C@@H](C3)N4CCC#N)nc3ncccc23)n[nH]1 [Embodiment 89, 3-((3-exo)-3-((4-((5-methyl-1H-pyrazol-3-yl)amino)pyrido[2,3-d]pyrimidin-2-yl)amino)-8-azabicyclo[3.2.1]oct-8-yl)propionitrile] |
| 8.90 | 9.10 | Cc1cnc(Nc2nc(N[C@@H]3C[C@H]4CC[C@@H](C3)N4S(=O)(=O)N3CC(C#N)C3)nc3ccccc23)s1 [Embodiment 221, 1-(((3-exo)-3-((4-((5-methylthioazole-2-yl)amino)quinazolin-2-yl)amino)-8-azabicyclo[3.2.1]oct-8-yl)sulfonyl)azetindin-3-formonitrile] |
| 9.55 | 8.73 | Cc1cc(Nc2nc(N[C@@H]3C[C@H]4CC[C@@H](C3)N4C(=O)[C@@H]3CCCN3)nc3sccc23)n[nH]1 [Embodiment 249, ((3-exo)-3-((4-((5-methyl-1H-pyrazol-3-yl)amino)thieno[2,3-d]pyrimidin-2-yl)amino)-9-azabicyclo[3.3.1]non-9-yl) ((S)-pyrrolidin-2-yl)methanone] |
| 8.42 | 7.95 | Cc1cc(Nc2nc(N[C@@H]3C[C@H]4CC[C@@H](C3)N4C(=O)C(F)F)nc3ccccc23)n[nH]1 [Embodiment 231, 2,2-difluoro-1-((3-exo)-3-((4-((5-methyl-1H-pyrazol-3-yl)amino)quinazolin-2-yl)amino)-8-azabicyclo[3.2.1]oct-8-yl)ethane-1-one] |
| 9.62 | 9.62 | Cc1cc(Nc2nc(N[C@@H]3C[C@H]4CC[C@@H](C3)N4CCC#N)nc3[nH]ncc23)n[nH]1 [Embodiment 51, 3-((3-exo)-3-((4-((5-methyl-1H-pyrazol-3-yl)amino)-1H-pyrazolo[3,4-d]pyrimidin-6-yl)amino)-8-azabicyclo[3.2.1]oct-8-yl)propionitrile] |
| 7.65 | 8.25 | N#CCCN1[C@@H]2CC[C@H]1C[C@H](Nc1nc(Nc3ncc(C(N)=O)s3)cc3ncccc13)C2 [Embodiment 35, 2-((5-(((3-exo)-8-(2-cyanoethyl)-8-azabicyclo[3.2.1]oct-3-yl)amino)-1,6-diazanaphthalen-7-yl)amino)thiazol-5-formamide] |
| 8.68 | 8.45 | COCCS(=O)(=O)N1[C@@H]2CC[C@H]1C[C@H](Nc1nc(Nc3cc(C)[nH]n3)c3ccccc3n1)C2 [Embodiment 233, N2-((3-exo)-8-((2-methoxylethyl)sulfonyl)-8-azabicyclo[3.2.1]oct-3-yl)-N4-(5-methyl-1H-pyrazol-3-yl)quinazolin-2,4-diamine] |
